Test results as given in paper PMC5564600 (Oncotarget, 2017).

Key:
Test in all cases: biochemical
Assay type in all cases: binding
panel of 442 kinases [1] = molecular target: T1, panel of 442 kinases (Homo sapiens, UniProt P36897); settings: kinase TGFBR1; for remaining activity at 1 µM: read-out: TGFBR1 (% of control at 1 µM)
T1 construct: purchased Ambit Biosciences (scanMAXX KINOMEscan)
T1 sequence (P36897 34-503): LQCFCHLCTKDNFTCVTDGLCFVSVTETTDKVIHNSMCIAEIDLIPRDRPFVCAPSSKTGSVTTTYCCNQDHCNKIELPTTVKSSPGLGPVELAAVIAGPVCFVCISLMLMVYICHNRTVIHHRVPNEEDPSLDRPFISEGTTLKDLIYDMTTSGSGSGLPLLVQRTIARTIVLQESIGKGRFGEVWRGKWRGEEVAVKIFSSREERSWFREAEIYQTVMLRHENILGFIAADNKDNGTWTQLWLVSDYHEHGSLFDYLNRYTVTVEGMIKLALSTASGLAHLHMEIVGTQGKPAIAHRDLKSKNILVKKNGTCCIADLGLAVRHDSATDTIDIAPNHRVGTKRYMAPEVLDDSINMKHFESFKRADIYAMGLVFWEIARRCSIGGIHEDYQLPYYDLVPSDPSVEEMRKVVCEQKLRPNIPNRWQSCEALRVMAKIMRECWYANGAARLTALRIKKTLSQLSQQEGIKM

panel of 442 kinases [2] = molecular target: T2, panel of 442 kinases (Homo sapiens, UniProt Q15569); settings: kinase TESK1; for remaining activity at 1 µM: read-out: TESK1 (% of control at 1 µM)
T2 construct: purchased Ambit Biosciences (scanMAXX KINOMEscan)

panel of 442 kinases [3] = molecular target: T3, panel of 442 kinases (Homo sapiens, UniProt Q14012); settings: CAMK1; for remaining activity at 1 µM: read-out: % of control at 1 µM
T3 construct: purchased Ambit Biosciences (scanMAXX KINOMEscan)

panel of 442 kinases [4] = molecular target: T4, panel of 442 kinases (Homo sapiens, UniProt Q00532); settings: CDKL1; for remaining activity at 1 µM: read-out: % of control at 1 µM
T4 construct: purchased Ambit Biosciences (scanMAXX KINOMEscan)

panel of 442 kinases [5] = molecular target: T5, panel of 442 kinases (Homo sapiens, UniProt Q9BQI3); settings: EIF2AK1; for remaining activity at 1 µM: read-out: % of control at 1 µM
T5 construct: purchased Ambit Biosciences (scanMAXX KINOMEscan)

panel of 442 kinases [6] = molecular target: T6, panel of 442 kinases (Homo sapiens, UniProt P48729); settings: CSNK1A1; for remaining activity at 1 µM: read-out: % of control at 1 µM
T6 construct: purchased Ambit Biosciences (scanMAXX KINOMEscan)

panel of 442 kinases [7] = molecular target: T7, panel of 442 kinases (Homo sapiens, UniProt Q9NWZ3); settings: kinase IRAK4; for remaining activity at 1 µM: read-out: % of control at 1 µM
T7 construct: purchased Ambit Biosciences (scanMAXX KINOMEscan)
T7 sequence (Q9NWZ3 1-460): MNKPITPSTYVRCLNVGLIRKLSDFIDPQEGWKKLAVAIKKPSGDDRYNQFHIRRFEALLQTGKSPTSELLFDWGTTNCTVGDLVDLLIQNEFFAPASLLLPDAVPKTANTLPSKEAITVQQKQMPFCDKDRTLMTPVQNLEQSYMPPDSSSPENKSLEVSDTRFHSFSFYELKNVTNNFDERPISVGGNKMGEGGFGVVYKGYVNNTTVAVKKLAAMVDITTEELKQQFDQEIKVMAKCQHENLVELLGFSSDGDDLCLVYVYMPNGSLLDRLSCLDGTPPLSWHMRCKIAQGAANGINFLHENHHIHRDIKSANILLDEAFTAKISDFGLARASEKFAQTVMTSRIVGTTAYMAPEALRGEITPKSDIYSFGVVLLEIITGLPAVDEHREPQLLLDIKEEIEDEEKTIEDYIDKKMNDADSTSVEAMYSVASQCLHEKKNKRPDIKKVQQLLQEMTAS

panel of 442 kinases [8] = molecular target: T8, panel of 442 kinases (Homo sapiens, UniProt P42684); settings: ABL2; for remaining activity at 1 µM: read-out: % of control at 1 µM
T8 construct: purchased Ambit Biosciences (scanMAXX KINOMEscan)

panel of 442 kinases [9] = molecular target: T9, panel of 442 kinases (Homo sapiens, UniProt Q8IWQ3); settings: BRSK2; for remaining activity at 1 µM: read-out: % of control at 1 µM
T9 construct: purchased Ambit Biosciences (scanMAXX KINOMEscan)
T9 sequence (Q8IWQ3 1-736): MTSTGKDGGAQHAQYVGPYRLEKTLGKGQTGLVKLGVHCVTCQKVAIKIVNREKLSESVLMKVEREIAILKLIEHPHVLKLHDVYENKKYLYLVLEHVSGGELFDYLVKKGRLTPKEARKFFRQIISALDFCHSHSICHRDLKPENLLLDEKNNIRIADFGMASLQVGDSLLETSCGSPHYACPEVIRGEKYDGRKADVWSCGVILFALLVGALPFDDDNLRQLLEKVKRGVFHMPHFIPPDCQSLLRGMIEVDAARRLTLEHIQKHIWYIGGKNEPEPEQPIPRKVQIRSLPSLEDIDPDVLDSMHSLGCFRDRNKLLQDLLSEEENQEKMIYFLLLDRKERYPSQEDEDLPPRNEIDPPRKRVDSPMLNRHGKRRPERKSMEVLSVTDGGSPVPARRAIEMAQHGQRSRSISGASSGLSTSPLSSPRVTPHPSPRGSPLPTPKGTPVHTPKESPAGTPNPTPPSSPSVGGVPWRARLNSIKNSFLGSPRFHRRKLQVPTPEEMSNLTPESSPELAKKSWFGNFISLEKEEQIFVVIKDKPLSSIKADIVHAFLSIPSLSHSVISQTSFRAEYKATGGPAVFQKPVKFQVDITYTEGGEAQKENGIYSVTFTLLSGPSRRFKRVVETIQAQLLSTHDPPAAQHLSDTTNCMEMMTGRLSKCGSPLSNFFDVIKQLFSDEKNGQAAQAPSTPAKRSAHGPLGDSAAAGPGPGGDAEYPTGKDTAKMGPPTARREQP

[10] = 10 µM, read-out: % of control at 10 µM

T4 sequence (Q00532 whole entry): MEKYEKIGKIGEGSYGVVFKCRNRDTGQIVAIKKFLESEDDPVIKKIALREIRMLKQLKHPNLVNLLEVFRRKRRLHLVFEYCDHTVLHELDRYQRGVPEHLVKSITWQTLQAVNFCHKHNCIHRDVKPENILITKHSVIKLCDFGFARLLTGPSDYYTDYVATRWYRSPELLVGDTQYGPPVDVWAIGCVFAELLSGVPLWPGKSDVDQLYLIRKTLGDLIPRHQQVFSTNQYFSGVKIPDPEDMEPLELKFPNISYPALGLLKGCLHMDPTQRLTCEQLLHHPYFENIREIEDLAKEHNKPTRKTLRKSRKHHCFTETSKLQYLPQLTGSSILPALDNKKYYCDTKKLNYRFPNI
T3 sequence (Q14012 whole entry): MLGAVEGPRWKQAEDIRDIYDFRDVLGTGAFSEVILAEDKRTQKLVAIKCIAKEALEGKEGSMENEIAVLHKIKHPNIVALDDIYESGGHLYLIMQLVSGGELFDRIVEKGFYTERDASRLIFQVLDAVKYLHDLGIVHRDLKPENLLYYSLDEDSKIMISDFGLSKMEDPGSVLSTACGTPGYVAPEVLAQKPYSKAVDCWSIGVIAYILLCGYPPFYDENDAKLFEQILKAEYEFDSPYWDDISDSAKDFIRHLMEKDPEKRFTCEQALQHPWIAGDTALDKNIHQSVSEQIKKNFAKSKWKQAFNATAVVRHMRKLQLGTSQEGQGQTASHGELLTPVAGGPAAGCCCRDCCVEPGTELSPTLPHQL
T5 sequence (Q9BQI3 whole entry): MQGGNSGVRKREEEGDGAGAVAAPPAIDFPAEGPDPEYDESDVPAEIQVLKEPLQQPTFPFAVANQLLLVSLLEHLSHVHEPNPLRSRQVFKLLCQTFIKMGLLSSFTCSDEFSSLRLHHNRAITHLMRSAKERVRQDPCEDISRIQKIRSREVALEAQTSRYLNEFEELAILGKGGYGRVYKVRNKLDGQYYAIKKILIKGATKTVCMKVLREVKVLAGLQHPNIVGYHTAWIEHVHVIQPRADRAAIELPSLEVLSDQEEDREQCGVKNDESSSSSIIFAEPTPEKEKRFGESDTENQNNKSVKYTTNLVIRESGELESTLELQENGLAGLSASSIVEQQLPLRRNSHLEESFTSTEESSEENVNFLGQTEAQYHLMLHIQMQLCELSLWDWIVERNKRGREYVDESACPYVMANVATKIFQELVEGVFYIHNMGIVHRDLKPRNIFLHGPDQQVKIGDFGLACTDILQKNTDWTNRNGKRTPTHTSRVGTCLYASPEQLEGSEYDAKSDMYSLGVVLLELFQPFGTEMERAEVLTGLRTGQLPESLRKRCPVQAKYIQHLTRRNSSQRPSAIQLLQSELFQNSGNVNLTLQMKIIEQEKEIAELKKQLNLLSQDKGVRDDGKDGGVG
T6 sequence (P48729 whole entry): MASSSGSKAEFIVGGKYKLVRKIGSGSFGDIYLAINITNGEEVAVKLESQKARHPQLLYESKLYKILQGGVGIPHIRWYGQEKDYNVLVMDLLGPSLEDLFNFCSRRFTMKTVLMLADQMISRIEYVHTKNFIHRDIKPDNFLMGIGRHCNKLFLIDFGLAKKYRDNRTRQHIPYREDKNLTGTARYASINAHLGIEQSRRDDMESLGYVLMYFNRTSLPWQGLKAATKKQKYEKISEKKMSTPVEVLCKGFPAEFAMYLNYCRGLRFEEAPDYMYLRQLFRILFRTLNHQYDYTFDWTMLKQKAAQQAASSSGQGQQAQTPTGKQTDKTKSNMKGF
T2 sequence (Q15569 whole entry): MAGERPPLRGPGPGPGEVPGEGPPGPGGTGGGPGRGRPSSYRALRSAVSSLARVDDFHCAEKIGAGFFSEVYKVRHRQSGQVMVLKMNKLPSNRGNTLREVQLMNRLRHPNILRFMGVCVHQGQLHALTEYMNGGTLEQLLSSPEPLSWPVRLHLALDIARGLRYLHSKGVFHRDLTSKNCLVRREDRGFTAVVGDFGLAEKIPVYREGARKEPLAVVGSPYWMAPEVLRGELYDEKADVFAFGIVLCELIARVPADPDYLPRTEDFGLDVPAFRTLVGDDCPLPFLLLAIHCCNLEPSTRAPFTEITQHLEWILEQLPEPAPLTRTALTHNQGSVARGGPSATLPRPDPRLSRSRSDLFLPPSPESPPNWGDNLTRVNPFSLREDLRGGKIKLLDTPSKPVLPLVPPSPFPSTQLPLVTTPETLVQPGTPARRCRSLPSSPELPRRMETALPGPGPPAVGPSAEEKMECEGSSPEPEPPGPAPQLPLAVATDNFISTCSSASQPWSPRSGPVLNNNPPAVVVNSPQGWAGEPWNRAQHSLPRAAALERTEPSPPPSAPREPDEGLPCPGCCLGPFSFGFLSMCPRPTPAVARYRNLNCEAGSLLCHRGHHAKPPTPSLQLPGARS
T8 sequence (P42684 whole entry): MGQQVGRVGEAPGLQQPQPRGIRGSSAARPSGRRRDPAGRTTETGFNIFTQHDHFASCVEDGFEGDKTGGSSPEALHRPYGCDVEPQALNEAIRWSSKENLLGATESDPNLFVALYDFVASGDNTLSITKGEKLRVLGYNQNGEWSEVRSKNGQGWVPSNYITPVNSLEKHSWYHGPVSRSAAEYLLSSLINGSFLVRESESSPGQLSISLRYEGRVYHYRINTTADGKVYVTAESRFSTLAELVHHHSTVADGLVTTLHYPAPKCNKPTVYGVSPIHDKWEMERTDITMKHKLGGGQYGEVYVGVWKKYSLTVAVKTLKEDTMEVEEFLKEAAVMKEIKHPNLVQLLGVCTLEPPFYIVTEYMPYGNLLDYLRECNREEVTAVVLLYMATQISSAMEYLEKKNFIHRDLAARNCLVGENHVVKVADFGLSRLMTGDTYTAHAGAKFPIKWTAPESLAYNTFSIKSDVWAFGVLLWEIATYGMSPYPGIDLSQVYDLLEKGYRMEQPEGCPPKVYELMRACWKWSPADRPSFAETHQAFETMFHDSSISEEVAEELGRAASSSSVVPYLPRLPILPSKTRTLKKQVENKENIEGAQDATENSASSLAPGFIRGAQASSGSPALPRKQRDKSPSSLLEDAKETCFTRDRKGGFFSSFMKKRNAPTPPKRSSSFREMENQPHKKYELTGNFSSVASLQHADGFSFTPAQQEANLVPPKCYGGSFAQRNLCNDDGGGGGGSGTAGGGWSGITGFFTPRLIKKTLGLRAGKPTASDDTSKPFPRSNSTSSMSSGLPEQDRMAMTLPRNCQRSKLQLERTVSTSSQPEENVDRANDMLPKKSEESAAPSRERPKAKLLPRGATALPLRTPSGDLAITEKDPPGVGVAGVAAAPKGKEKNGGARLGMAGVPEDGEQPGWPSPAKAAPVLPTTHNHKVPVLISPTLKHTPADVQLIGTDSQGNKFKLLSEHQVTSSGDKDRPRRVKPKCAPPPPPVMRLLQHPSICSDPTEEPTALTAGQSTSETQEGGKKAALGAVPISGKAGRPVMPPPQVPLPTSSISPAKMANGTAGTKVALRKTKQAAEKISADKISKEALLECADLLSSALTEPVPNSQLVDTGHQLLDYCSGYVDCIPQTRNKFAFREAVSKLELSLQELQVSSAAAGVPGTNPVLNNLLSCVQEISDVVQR

SMILES | remaining activity at 1 µM (panel of 442 kinases [1]) | remaining activity at 10 µM (panel of 442 kinases [1]; 10 µM, read-out: TGFBR1 (% of control at 10 µM)) | remaining activity at 1 µM (panel of 442 kinases [2]) | remaining activity at 10 µM (panel of 442 kinases [2]; 10 µM, read-out: TESK1 (% of control at 10 µM)) | remaining activity at 1 µM (panel of 442 kinases [3]) | remaining activity at 10 µM (panel of 442 kinases [3]; [10]) | remaining activity at 1 µM (panel of 442 kinases [4]) | remaining activity at 10 µM (panel of 442 kinases [4]; [10]) | remaining activity at 1 µM (panel of 442 kinases [5]) | remaining activity at 10 µM (panel of 442 kinases [5]; [10]) | remaining activity at 1 µM (panel of 442 kinases [6]) | remaining activity at 10 µM (panel of 442 kinases [6]; [10]) | remaining activity at 1 µM (panel of 442 kinases [7]) | remaining activity at 10 µM (panel of 442 kinases [7]; [10]) | remaining activity at 1 µM (panel of 442 kinases [8]) | remaining activity at 10 µM (panel of 442 kinases [8]; [10]) | remaining activity at 1 µM (panel of 442 kinases [9]) | remaining activity at 10 µM (panel of 442 kinases [9]; [10])
Nc1cc(C(F)(F)F)c(-c2cc(N3CCOCC3)nc(N3CCOCC3)n2)cn1 [Buparlisib] | 100% | 100% | 92% | 100% | 100% | 100% | 100% | 100% | 92% | 100% | 88% | 100% | 62% | 67% | 100% | 100% | 100% | 100%
Cn1c(=O)n(-c2ccc(C(C)(C)C#N)cc2)c2c3cc(-c4cnc5ccccc5c4)ccc3ncc21 [Dactolisib, 2-methyl-2-[4-(3-methyl-2-oxo-8-quinolin-3-yl-2,3-dihydroimidazo[4,5-c]quinolin-1-yl)-phenyl] propionitrile] | 89% | – | 100% | – | 78% | – | 100% | – | 94% | – | 99% | – | 68% | – | 100% | – | 91% | –
COc1ncc(-c2ccc3nccc(-c4ccnnc4)c3c2)cc1NS(=O)(=O)c1ccc(F)cc1F [Omipalisib] | 100% | – | 73% | – | 100% | – | 100% | – | 100% | – | 100% | – | 88% | – | 100% | – | 95% | –
FC(F)c1nc2ccccc2n1-c1nc(N2CCOCC2)nc(N2CCOCC2)n1 [ZSTK474, 2-(difluoromethyl)-1-[4,6-di(4-morpholinyl)-1,3,5-triazin-2-yl]-1H-benzimidazole] | 79% | – | 96% | – | 100% | – | 100% | – | 77% | – | 91% | – | 100% | – | 100% | – | 100% | –
